Source: publication PMC8501045, “Addressing MRSA infection and antibacterial resistance with peptoid polymers” (Nature Communications, 2021)
Values after ≈ are worked out from the molar mass of the structure shown. Values joined by “and” are separate entries in the source; they are usually repeats but may differ in a detail not shown here. Identical values can stand only once. Like-named read-outs stand apart in the source and are kept apart here.

How the values were obtained:
E. faecalis 0609 = assay: MIC assay, clinical isolate; format: cell-based; conditions: Enterococcus faecalis
Description: (§1) MRSA (S. aureus Mu50, S. aureus Newman, S. aureus USA400, S. aureus USA300 LAC, S. aureus USA300) were obtained from Shanghai Institute of Materia Medica, Chinese Academy of Sciences. All clinically isolated Gram-positive bacteria used in this study were isolated from patients with various infections, different ages and sexes in the Shanghai Ruijin Rehabilitation Hospital. All strains were cultured in Luria-Bertani (LB) medium at 37 °C before use.
(§2) Bacteria were cultured in LB medium at 37 °C for 10 h, and then the bacterial suspension was diluted in Mueller–Hinton (MH) medium to a cell density of 2 × 10^5 colony forming units (CFU)/mL as the working suspension. The poly(Naeg)20 was serially diluted by MH medium in a 96-well plate, and an equal volume of bacterial suspension was added into each well. The final concentration of the poly(Naeg)20 was ranging from 200 to 1.56 μg/mL, and the plates were incubated at 37 °C for 9 h. Wells with inoculum and no polymer were used as the positive control; wells with only MH medium were used as the blank. The optical density (OD) in each well was measured on a Molecular Devices SpectraMax M2 precision microplate reader. The percentage of bacteria growth was calculated from1 %cellgrowth=A600polymer-A600blank/A600control-A600blank×100
(§3) The test was independently repeated at least three times.

E. faecalis 2305 = assay: MIC assay, clinical isolate; format: cell-based; conditions: Enterococcus faecalis
Description: as §1, §2, §3

E. faecium 0502 = assay: MIC assay, clinical isolate; format: cell-based; conditions: Enterococcus faecium; clinical isolate E. faecium 0502; read-out: MIC
Description: as §1, §2, §3

E. faecium 0609 = assay: MIC assay, clinical isolate; format: cell-based; conditions: Enterococcus faecium; clinical isolate E. faecium 0609; read-out: MIC
Description: as §1, §2, §3

E. faecium 0610 = assay: MIC assay, clinical isolate; format: cell-based; conditions: Enterococcus faecium; clinical isolate E. faecium 0610; read-out: MIC
Description: as §1, §2, §3

E. faecium 1205 = assay: MIC assay, clinical isolate; format: cell-based; conditions: Enterococcus faecium; clinical isolate E. faecium 1205; read-out: MIC
Description: as §1, §2, §3

E. faecium 2504 = assay: MIC assay, clinical isolate; format: cell-based; conditions: Enterococcus faecium; clinical isolate E. faecium 2504; read-out: MIC
Description: as §1, §2, §3

S. agalactiae 0613 = assay: MIC assay, clinical isolate; format: cell-based; conditions: Streptococcus agalactiae; clinical isolate S. agalactiae 0613; read-out: MIC
Description: as §1, §2, §3

S. aureus 2202 = assay: MIC assay, clinical isolate; format: cell-based; conditions: Staphylococcus aureus; clinical isolate S. aureus 2202; read-out: MIC
Description: as §1, §2, §3

S. aureus 2802 = assay: MIC assay, clinical isolate; format: cell-based; conditions: Staphylococcus aureus; clinical isolate S. aureus 2802; read-out: MIC
Description: as §1, §2, §3

S. aureus 2902 = assay: MIC assay, clinical isolate; format: cell-based; conditions: Staphylococcus aureus; clinical isolate S. aureus 2902; read-out: MIC
Description: as §1, §2, §3

S. aureus 2904 = assay: MIC assay, clinical isolate; format: cell-based; conditions: Staphylococcus aureus; clinical isolate S. aureus 2904; read-out: MIC
Description: as §1, §2, §3

S. epidermidis 0501 = assay: MIC assay, clinical isolate; format: cell-based; conditions: Staphylococcus epidermidis; clinical isolate S. epidermidis 0501; read-out: MIC
Description: as §1, §2, §3

S. epidermidis 9397 = assay: MIC assay, clinical isolate; format: cell-based; conditions: Staphylococcus epidermidis; clinical isolate S. epidermidis 9397; read-out: MIC
Description: as §1, §2, §3

S. haemolyticus 0202 = assay: MIC assay, clinical isolate; format: cell-based; conditions: Staphylococcus haemolyticus; clinical isolate S. haemolyticus 0202; read-out: MIC
Description: as §1, §2, §3

S. haemolyticus 1107 = assay: MIC assay, clinical isolate; format: cell-based; conditions: Staphylococcus haemolyticus; clinical isolate S. haemolyticus 1107; read-out: MIC
Description: as §1, §2, §3

S. haemolyticus 1303 = assay: MIC assay, clinical isolate; format: cell-based; conditions: Staphylococcus haemolyticus; clinical isolate S. haemolyticus 1303; read-out: MIC
Description: as §1, §2, §3

L. monocytogenes 1001 = assay: MIC assay, clinical isolate; format: cell-based, Listeria monocytogene; conditions: Listeria monocytogenes
Description: as §1, §2, §3

S. aureus ATCC6538 [1] = format: cell-based, Staphylococcus aureus; conditions: after 375 passages
Description: The antimicrobial-resistance test was conducted according to the previously reported method with slight modification. […] An aliquot of 2.5 μL of the mixture was sampled and diluted 400-fold in LB medium for a new cell-drug incubation cycle. The above cycle was repeated every 24 h. […] Generation of bacteria growth was calculated from incubating time and bacteria growth kinetics described below.

S. aureus ATCC6538 [2] = assay: Bacterial killing kinetics; format: cell-based, Staphylococcus aureus; conditions: 2×MBC (Figure S40)
[3] = tested on: S. aureus USA300 biofilm formation; assay: Inhibition study on biofilm formation; format: cell-based, Staphylococcus aureus
Description: The plate was incubated at 37 °C for 24 h, and then the culture medium was removed, washed with PBS once, followed by adding 100 µL MTT solution (0.5 mg/mL) into the corresponding well. After further incubation at 37 °C for 4 h in the dark, the MTT solution was removed. An aliquot of 100 μL DMSO was added to each well to solubilize the purple solid and then the OD value was collected at 570 nm on a microplate reader. Wells containing inoculum and without antibacterial agents were used as the positive control; wells containing only MH medium were used as the blank. The percentage of surviving cells within biofilm was calculated from4 %cellviability=A570polymer-A570blank/A570control-A570blank×100
as §3

[4] = tested on: S. aureus USA300 mature biofilm; assay: Activity against mature biofilm; format: cell-based, Staphylococcus aureus; conditions: for Biofilm survival(%): norfloxacin, r4-r9 = 64, 128, 256, 512, 1024, 2048 MIC
Description: The plate was incubated at 37 °C for 24 h to allow biofilm formation. […] Then MTT assay was used to determine the biofilm viability. Wells containing inoculum and without antibacterial agents were used as the positive control; wells containing only MH medium were used as the blank. The percentage of surviving cells within biofilm was calculated from5 %cellviability=A570polymer-A570blank/A570control-A570blank×100
as §3

[5] = clinical isolate E. faecalis 2305, read-out: MIC
[6] = clinical isolate L. monocytogenes 1001, read-out: MIC

Row | Structure (SMILES) | MIC (E. faecalis 2305; [5]) [mg/L] | MIC (E. faecium 0502) [mg/L] | MIC (E. faecium 0609) [mg/L] | MIC (E. faecium 0610) [mg/L] | MIC (E. faecium 1205) [mg/L] | MIC (E. faecium 2504) [mg/L] | MIC (S. agalactiae 0613) [mg/L] | MIC (S. aureus 2202) [mg/L] | MIC (S. aureus 2802) [mg/L] | MIC (S. aureus 2902) [mg/L] | MIC (S. aureus 2904) [mg/L] | MIC (S. epidermidis 0501) [mg/L] | MIC (S. epidermidis 9397) [mg/L] | MIC (S. haemolyticus 0202) [mg/L] | MIC (S. haemolyticus 1107) [mg/L] | MIC (S. haemolyticus 1303) [mg/L] | MIC (L. monocytogenes 1001; [6]) [mg/L] | MIC (E. faecalis 0609; 0609) [mg/L] | time to kill 90% of S. aureus (S. aureus ATCC6538 [2]) [h] | further results
1 | COc1cccc(OC)c1C(=O)N[C@@H]1C(=O)N2[C@@H]1SC(C)(C)[C@@H]2C(=O)O [Methicillin] | > 200 | > 200 | > 200 | > 200 | > 200 | > 200 | 1.56 (≈ 4.1 µM) | 3.13 (≈ 8.23 µM) | 6.25 (≈ 16.4 µM) | 12.5 (≈ 32.9 µM) | 6.25 (≈ 16.4 µM) | 12.5 (≈ 32.9 µM) | 1.56 (≈ 4.1 µM) | 200 (≈ 526 µM) | > 200 | > 200 | 25 (≈ 65.7 µM) | – | – | MIC (E. faecalis 0609; clinical isolate E. faecalis 0609, read-out: MIC): 50 mg/L (≈ 131 µM)
2 | CC1(C)S[C@@H]2[C@H](NC(=O)[C@H](N)c3ccccc3)C(=O)N2[C@H]1C(=O)O [Ampicillin] | – | > 200 | > 200 | > 200 | > 200 | 100 (≈ 286 µM) | 0.39 (≈ 1.12 µM) | 1.56 (≈ 4.46 µM) | 25 (≈ 71.5 µM) | 25 (≈ 71.5 µM) | 25 (≈ 71.5 µM) | 6.25 (≈ 17.9 µM) | 0.39 (≈ 1.12 µM) | 200 (≈ 572 µM) | > 200 | 200 (≈ 572 µM) | 1.56 (≈ 4.46 µM) | 3.13 (≈ 8.96 µM) | – | MIC (E. faecalis 2305; 2305): 12.5 mg/L (≈ 35.8 µM)
3 | CCn1cc(C(=O)O)c(=O)c2cc(F)c(N3CCNCC3)cc21 [Norfloxacin] | 25 (≈ 78.3 µM) | 100 (≈ 313 µM) | > 200 | 200 (≈ 626 µM) | 100 (≈ 313 µM) | 200 (≈ 626 µM) | 25 (≈ 78.3 µM) | 50 (≈ 157 µM) | 200 (≈ 626 µM) | 25 (≈ 78.3 µM) | 200 (≈ 626 µM) | 0.2 (≈ 0.626 µM) | 0.2 (≈ 0.626 µM) | 100 (≈ 313 µM) | 100 (≈ 313 µM) | 25 (≈ 78.3 µM) | – | 1.56 (≈ 4.89 µM) | 2 to 3 | MIC (L. monocytogenes 1001; 1001): 1.56 mg/L (≈ 4.89 µM); increase of MBC (S. aureus ATCC6538 [1]): 1024 times; concentration required to inhibit the formation of S. aureus biofilm [3]: 64 × MIC; concentration that eradicates mature biofilms of S. aureus [4]: > 2048 × MIC; Biofilm survival(%) ([4]; replicate 1): 91.6463% and 85.7695% and 83.8544% and 89.6297% and 72.4394% and 55.1024%; Biofilm survival(%) ([4]; replicate 2): 89.0013% and 75.6713% and 82.9402% and 81.0138% and 70.6748% and 61.6339%; Biofilm survival(%) ([4]; replicate 3): 91.3528% and 81.8867% and 88.4821% and 86.774% and 64.2036% and 56.0543%
4 | C[C@H]1COc2c(N3CCN(C)CC3)c(F)cc3c(=O)c(C(=O)O)cn1c23 [levofloxacin] | – | – | – | – | – | – | – | – | – | – | – | – | – | – | – | – | – | – | 2 to 3 | –
